According to US20250002991A1, “METHODS AND COMPOSITIONS FOR GENOME EDITING” (THE JOHNS HOPKINS UNIVERSITY, priority 2021, published 2025):

How the values were obtained:
[1] = system: MRE11 recruitment at the Cas9 target site (VEGFA site 3 on-target site; HEK293T, K562); test: MRE11 ChIP-qPCR at Cas9 target sites after exposure to DNA repair inhibitors; assay type: cell-based, human; conditions: for MRE11 recruitment at the target site (ChIP-qPCR): Cas9 with gRNA targeting VEGFA site 3, HEK293T, 12 hours, 1 μM KU-60648, 20 µM Nu7026, 10 μM Ku-55933, 1 μM Scr7, 10 μM Olaparib
Source text: (§1) The supernatant was decanted.

[2] = system: MRE11 at Cas9 on- and off-target sites in K562 cells; test: MRE11 ChIP-seq with BLENDER off-target detection (DISCOVER-Seq+) in K562 cells; assay type: cell-based, human
Source text: as §1

[3] = system: 53BP1 and BRCA1 foci in U2OS cells stably expressing Cas9-EGFP; test: Super-resolution STED microscopy of 53BP1 and BRCA1 repair foci after Cas9-induced DNA breaks; assay type: cell-based
Description: U2OS cells stably expressing Cas9-EGFP cells were seeded onto 35-mm, glass bottom dishes and transfected with mtgRNAs for 12-24 hrs. Cleavage was activated by UV light for 1 minute. To fix cells, 4% of pre-warmed paraformaldehyde in 1×PBS was used for 10 min. After rinsing 3 times with 1×PBS, cell membrane permeabilization was done with Triton-X used for 10 min. Then, cells 2% w/v BSA in 1×PBS was used for blocking for 1 hr and at room temperature. The primary antibodies, mouse anti-BRCA1 (D-9 sc-6954 Santa Cruz) and anti-53bpl (Abcam, ab172580), were diluted (1:500) in 1×PBS and directly added into the imaging dish. After 1 hr incubation, the primary antibody was removed, and the sample was washed with 1×PBS three times. The samples were then incubated for 30 minutes with the secondary antibodies Alexa-594 and Atto-647N diluted (1:1000) in 1×PBS. Finally, the sample was rinsed three times and mounted with Prolong Diamond mounting media (Thermo Fisher Scientific) overnight.
All STED images were obtained using a home-built two-color STED microscope (Han and Ha, 2015: Ma and Ha, 2019). In short, a femtosecond laser beam with a repetition rate of 80 MHz from a Ti: Sapphire laser head (Mai Tai HP, Spectra-Physics) is split into two parts: one part produces an excitation beam coupled into a photonic crystal fiber (Newport) for wide-spectrum light generation. […]

[4] = system: MRE11 at Cas9 TRA target sites in primary human T-cells; test: DISCOVER-Seq+ in primary human T-cells with Cas9 targeting TRA (CAR knock-in); assay type: cell-based
Source text: as §1

[5] = system: MRE11 at Cas9 PCSK9 target sites in mouse liver; test: DISCOVER-Seq+ in liver of mice given adenovirus Cas9/gRNA targeting PCSK9; assay type: in vivo, mouse (C57BL/6J)
Description: For in vivo gene delivery, 8-10 week old mice were anesthetized with 2.5% isofluorane/oxygen mixture. Mice received a single retro-orbital injection of 1×10^9 infectious adenoviral particles (Ad-Cas9-U6-mPCSK9-sgRNA) in 100 μL sterile saline. Immediately following, mice received intraperitoneal delivery of KU-60648 dosed at 25 mg/kg (or vehicle only) in 100 μL of citrate buffer, or 100 μL of citrate buffer vehicle. Mice received a dose of KU-60648 or vehicle every 12 hrs via intraperitoneal injection.
At the experimental endpoint of 12 h, mice were anesthetized with isofluorane and euthanized via cervical dislocation. Liver tissue was harvested, washed 3× in 2 mL PBS with 1× protease inhibitor (Halt™ Protease Inhibitor Cocktail, Thermo), then disrupted the tissue in 1 mL PBS with 1× protease inhibitor using a loose-fitting Dounce homogenizer. For MRE11 ChIP-seq, homogenized tissue was placed on ice and used immediately.
as §1

[6] = previous evaluation, ref [21]; cited from earlier work
[7] = system: Cas9 editing of ACTB; test: Sequencing of insertion-deletion mutations (indels) after Cas9 targeting ACTB; assay type: cell-based; conditions: 48 hours after Cas9 editing; especially +1 insertions reduced in favor of larger -3 deletions
Description: Genomic DNA was extracted using the DNeasy Blood & Tissue Kit (Qiagen 69504) following manufacturer instructions. Approximately 1 million cells were used from cell lines and iPSCs. Approximately 10-20 μL of mouse liver cell suspension was used out of 1.5 mL total, and the genome extraction protocol included the Buffer ATL step since this sample is tissue.
Genomic DNA samples were amplified with PCR using Q5 Hot Start High-Fidelity 2X Master Mix (New England BioLabs M0494). For example, the primer set for amplifying around the FANCF site 2 on-target site is NGS_FANCFs2_ON_F and NGS_FANCFs2_ON_R. After amplicon PCR, cleanup was performed using 1.4×AMPure XP (Beckman Coulter A63881) following the manufacturer's instructions. Dual-indexing PCR was performed using KAPA HiFi HotStart ReadyMix (Roche 07958935001) and PCR cleanup was performed using 1×AMPure XP. Samples were quantified using QuBit (Thermo Fisher Scientific), pooled, diluted, and loaded onto a MiSeq (Illumina). […]
Sequencing reads were either demultiplexed automatically using MiSeq Reporter (Illumina) or with a custom Python script to individual FASTQ files. For indel calling, sequencing reads were scanned for exact matches to two 20-bp sequences that flank +/−20 bp from the ends of the target sequence. If no exact matches were found, the read was excluded from analysis. […]

Compound: O=c1cc(-c2cccc3c2Sc2ccccc2S3)oc(N2CCOCC2)c1 [Ku-55933]
- MRE11 recruitment at the target site (ChIP-qPCR) [1]: did not exhibit a clear effect

Compound: CCN1CCN(CC(=O)Nc2ccc(-c3cccc4c(=O)cc(N5CCOCC5)oc34)c3sc4ccccc4c23)CC1 [Ku-60648, 2-(4-ethylpiperazin-1-yl)-N-[4-(2-morpholin-4-yl-4-oxochromen-8-yl)dibenzothiophen-1-yl]acetamide]
- MRE11 ChIP-seq enrichment at all discovered on- and off-target sites ([2]; K562, 12 hours after Cas9 delivery, FANCF site 2 or VEGFA site 2 gRNA, p<1E-3): significantly increased MRE11 ChIP-seq enrichment
- fold increase in discovered Cas9 target sites versus without DNA-PKcs inhibition ([2]; VEGFA site 2 gRNA, K562): over 5 fold
- total Cas9 target sites discovered ([2]; VEGFA site 2 gRNA, K562, with DNA-PKcs inhibition (36 sites without)): 181
- 53BP1 foci relative to BRCA1 ([3]; Cas9 with multi-target gRNA targeting over 100 locations): reduction in 53BP1 foci relative to BRCA1
- number of 53BP1 and BRCA1 foci in the absence of Cas9 (DNA damage by inhibitor alone) ([3]; without Cas9): did not change the number of 53BP1 and BRCA1 foci
- MRE11 recruitment at the target site (ChIP-qPCR) [1]: significantly increased MRE11 recruitment
- estimated RPM enrichment normalized to the no drug sample (MRE11 ChIP-qPCR) ([1]; VEGFA site 2 (4 h, 12 h, 24 h) and HEK site 4 in HEK293T, FANCF site 2 in K562, versus without inhibitor, p=0.0001, n=14): significantly higher
- off-target sites identified genome-wide ([4]; Cas9 targeting TRA, 12 hours (4 with DISCOVER-Seq)): 20
- MRE11 enrichment at all discovered sites ([4]; Cas9 targeting TRA, versus DISCOVER-Seq without drug): significantly greater MRE11 enrichment
- MRE11 enrichment in samples without Cas9 (negative control) ([4]; samples without Cas9): did not exhibit any change in enrichment
- average number of target sites identified across 5 biological replicates ([5]; 25 mg/kg b.i.d., mouse liver (18 sites with vehicle), p<0.05): 27
- target sites identified, sequencing reads pooled across all 5 replicates ([5]; 25 mg/kg b.i.d., mouse liver (51 with vehicle)): 101
- MRE11 ChIP-seq signal in liver ([5]; 25 mg/kg peritoneal b.i.d., versus without DNA-PKcs inhibition, p<1E-4): significantly increased MRE11 ChIP-seq signal
- penetration into tissue [6]: strongly penetrations into tissue including tumors
- pharmacokinetics [6]: good pharmacokinetics
- indel editing after Cas9 targeting ACTB [7]: reduction in editing

Compound: O=c1cc(N2CCOCC2)oc2c1ccc1ccccc12 [Nu7026, 2-(morpholin-4-yl)benzo (h) chromen-4-one]
- MRE11 recruitment at the target site (ChIP-qPCR) [1]: significantly increased MRE11 recruitment

Compound: O=C(c1cc(Cc2n[nH]c(=O)c3ccccc23)ccc1F)N1CCN(C(=O)C2CC2)CC1 [Olaparib]
- MRE11 recruitment at the target site (ChIP-qPCR) [1]: did not exhibit a clear effect

Compound: O=c1[nH]c(=S)[nH]c(N=Cc2ccccc2)c1N=Cc1ccccc1 [Scr7]
- MRE11 recruitment at the target site (ChIP-qPCR) [1]: suppressed MRE11 recruitment
